Assay [1] has as its target Serine/threonine-protein kinase PAK 2 (Homo sapiens) (UniProt Q13177). In words: Selectivity interaction (ProQinase) EUB0000171b PAK2.
Assay [2] deals with Dual specificity mitogen-activated protein kinase kinase 2 (Homo sapiens) (UniProt P36507). The settings on record: at 10 µM.
Assay [3] has as its target Mitogen-activated protein kinase kinase kinase 20 (Homo sapiens) (UniProt Q9NYL2). The settings on record: at 10 µM.
For assay [4], the target named is Serine/threonine-protein kinase Nek6 (Homo sapiens) (UniProt Q9HC98). In words: Selectivity interaction (KinomeScan (DiscoverX)) EUB0001079a NEK6. The settings on record: at 1 µM.
Assay [5] deals with Serine/threonine-protein kinase 38 (Homo sapiens) (UniProt Q15208). In words: Selectivity interaction (KinomeScan (DiscoverX)) EUB0001079a STK38. The settings on record: at 1 µM.
Assay [6] has as its target T1, Serine/threonine-protein kinase DCLK3 (Homo sapiens) (UniProt Q9C098).
T1 sequence (whole entry): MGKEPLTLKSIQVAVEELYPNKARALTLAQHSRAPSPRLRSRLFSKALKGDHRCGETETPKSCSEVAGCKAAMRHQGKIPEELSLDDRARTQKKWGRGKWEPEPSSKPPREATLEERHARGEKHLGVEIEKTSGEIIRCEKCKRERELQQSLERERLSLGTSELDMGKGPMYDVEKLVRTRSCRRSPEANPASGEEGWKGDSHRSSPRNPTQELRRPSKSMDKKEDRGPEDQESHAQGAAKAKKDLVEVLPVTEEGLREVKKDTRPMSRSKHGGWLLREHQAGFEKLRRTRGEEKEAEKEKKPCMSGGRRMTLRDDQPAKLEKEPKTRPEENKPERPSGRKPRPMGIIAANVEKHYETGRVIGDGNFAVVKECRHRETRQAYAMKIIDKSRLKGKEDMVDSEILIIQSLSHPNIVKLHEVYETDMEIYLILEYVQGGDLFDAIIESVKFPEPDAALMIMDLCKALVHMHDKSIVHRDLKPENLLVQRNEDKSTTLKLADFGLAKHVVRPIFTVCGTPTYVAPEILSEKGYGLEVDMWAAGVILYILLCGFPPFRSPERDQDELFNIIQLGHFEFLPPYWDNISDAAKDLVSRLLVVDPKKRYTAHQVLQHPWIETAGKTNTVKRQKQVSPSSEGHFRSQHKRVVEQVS
In words: Selectivity interaction (KinomeScan (DiscoverX)) EUB0000655a DCLK3. The settings on record: at 10 µM.

The target of assay [7] is T2, Interleukin-1 receptor-associated kinase 4 (Homo sapiens) (UniProt Q9NWZ3).
T2 sequence (whole entry): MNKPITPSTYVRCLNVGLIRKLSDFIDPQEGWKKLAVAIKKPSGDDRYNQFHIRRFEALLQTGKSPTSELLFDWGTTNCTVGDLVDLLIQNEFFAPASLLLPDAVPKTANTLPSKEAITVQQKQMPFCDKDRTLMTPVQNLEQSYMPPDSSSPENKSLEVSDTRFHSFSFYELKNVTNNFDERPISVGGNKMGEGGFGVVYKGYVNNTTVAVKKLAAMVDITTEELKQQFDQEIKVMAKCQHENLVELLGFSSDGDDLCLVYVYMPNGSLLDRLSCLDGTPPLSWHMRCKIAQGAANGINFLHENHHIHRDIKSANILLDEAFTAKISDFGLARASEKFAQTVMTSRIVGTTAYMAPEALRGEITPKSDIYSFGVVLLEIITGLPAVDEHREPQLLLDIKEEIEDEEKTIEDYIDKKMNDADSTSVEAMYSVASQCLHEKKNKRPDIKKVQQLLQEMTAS
Briefly: Selectivity interaction (SelectScreen profiling (Invitrogen)) EUB0000607a IRAK4. The settings on record: at 2 µM.

The target of a further assay is SRSF protein kinase 1 (Homo sapiens, UniProt Q96SB4). In words: Selectivity interaction (ActivX KiNativ screen (kinase selectivity in THP-1 cell lysates)) EUB0000639a SRPK1. The class given is subcellular. The settings on record: lysate, at 0.04 µM.
Assay [8] deals with Serine/threonine-protein kinase WNK1 (Homo sapiens) (UniProt Q9H4A3). In words: Selectivity interaction (ActivX KiNativ screen (kinase selectivity in THP-1 cell lysates)) EUB0000639a WNK1. The format is subcellular. The settings on record: lysate, at 0.04 µM.
Assay [9] deals with Proto-oncogene tyrosine-protein kinase receptor Ret (Homo sapiens, UniProt P07949). Briefly: Selectivity interaction (Kinase panel (Invitrogen)) EUB0000639a RET. The settings on record: at 200 nM.
Assay [10] deals with T3, Tyrosine-protein kinase Tec (Homo sapiens) (UniProt P42680).
T3 sequence (whole entry): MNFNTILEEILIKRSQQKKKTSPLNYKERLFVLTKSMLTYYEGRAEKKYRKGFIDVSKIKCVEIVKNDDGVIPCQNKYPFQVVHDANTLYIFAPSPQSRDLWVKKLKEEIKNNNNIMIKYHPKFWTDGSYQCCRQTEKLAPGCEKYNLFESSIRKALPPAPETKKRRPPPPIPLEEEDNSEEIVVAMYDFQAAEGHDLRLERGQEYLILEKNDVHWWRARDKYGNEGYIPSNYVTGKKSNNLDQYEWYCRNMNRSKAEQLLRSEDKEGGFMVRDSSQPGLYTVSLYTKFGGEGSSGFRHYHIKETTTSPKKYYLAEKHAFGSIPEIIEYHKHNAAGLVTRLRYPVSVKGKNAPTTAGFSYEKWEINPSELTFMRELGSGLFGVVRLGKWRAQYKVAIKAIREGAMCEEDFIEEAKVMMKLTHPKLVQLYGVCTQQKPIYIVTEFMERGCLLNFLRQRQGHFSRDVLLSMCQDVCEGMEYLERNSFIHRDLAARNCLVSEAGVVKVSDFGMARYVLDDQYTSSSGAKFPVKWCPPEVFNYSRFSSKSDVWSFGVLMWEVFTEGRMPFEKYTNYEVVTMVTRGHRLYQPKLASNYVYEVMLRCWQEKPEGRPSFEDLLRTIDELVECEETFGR
Briefly: Selectivity interaction (ActivX KiNativ screen (kinase selectivity in THP-1 cell lysates)) EUB0000639a TEC. The format is subcellular. The settings on record: lysate, at 0.04 µM.

For assay [11], the target named is T4, Casein kinase I isoform alpha-like (Homo sapiens) (UniProt Q8N752).
T4 sequence (whole entry): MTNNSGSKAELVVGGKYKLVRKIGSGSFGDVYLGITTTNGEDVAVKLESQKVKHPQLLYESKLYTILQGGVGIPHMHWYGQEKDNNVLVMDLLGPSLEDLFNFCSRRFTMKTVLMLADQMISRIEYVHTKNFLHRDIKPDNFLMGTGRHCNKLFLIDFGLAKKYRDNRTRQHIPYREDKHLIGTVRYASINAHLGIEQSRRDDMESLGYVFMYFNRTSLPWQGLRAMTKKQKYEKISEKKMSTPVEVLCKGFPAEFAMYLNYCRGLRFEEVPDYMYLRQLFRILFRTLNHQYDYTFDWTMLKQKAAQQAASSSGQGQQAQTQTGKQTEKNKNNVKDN
Briefly: Selectivity interaction (KinomeScan (DiscoverX)) EUB0000229b CSNK1A1L. The settings on record: at 10 µM.

The target of assay [12] is Mitogen-activated protein kinase 8 (Homo sapiens, UniProt P45983). Briefly: Selectivity interaction (KinomeScan (DiscoverX)) EUB0000229b MAPK8. The settings on record: at 10 µM.

Experimental findings from ChEMBL document CHEMBL5465560, “Selectivity Literature for EUbOPEN Chemogenomic Library” (2024) are described below.

Serine/threonine-protein kinase PAK 2 (Homo sapiens), sequence (Q13177 whole entry): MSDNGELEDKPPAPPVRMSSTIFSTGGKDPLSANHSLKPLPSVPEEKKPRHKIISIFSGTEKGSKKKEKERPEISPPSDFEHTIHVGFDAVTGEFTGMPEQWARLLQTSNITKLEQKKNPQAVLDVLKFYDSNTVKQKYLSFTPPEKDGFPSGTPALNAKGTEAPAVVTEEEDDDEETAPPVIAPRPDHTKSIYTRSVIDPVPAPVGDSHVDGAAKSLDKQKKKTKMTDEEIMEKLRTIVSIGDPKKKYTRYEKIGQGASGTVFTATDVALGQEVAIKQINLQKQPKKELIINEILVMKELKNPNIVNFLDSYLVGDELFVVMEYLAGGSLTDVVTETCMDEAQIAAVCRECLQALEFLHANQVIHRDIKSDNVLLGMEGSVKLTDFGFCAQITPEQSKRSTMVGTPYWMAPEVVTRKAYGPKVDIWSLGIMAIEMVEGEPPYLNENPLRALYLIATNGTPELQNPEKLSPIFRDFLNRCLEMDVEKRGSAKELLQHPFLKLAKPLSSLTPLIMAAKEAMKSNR
Dual specificity mitogen-activated protein kinase kinase 2 (Homo sapiens), sequence (P36507 whole entry): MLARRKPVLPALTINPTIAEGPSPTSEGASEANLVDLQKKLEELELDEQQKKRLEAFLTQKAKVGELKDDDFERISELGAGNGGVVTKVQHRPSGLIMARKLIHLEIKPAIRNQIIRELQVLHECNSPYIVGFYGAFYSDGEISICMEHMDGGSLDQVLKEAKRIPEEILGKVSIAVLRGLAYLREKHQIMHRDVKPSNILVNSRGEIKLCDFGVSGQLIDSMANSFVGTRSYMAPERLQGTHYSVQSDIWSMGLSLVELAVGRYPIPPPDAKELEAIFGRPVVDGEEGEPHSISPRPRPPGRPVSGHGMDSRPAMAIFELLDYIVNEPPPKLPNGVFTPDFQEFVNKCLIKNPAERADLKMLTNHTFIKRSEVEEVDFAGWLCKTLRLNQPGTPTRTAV
Serine/threonine-protein kinase Nek6 (Homo sapiens), sequence (Q9HC98 whole entry): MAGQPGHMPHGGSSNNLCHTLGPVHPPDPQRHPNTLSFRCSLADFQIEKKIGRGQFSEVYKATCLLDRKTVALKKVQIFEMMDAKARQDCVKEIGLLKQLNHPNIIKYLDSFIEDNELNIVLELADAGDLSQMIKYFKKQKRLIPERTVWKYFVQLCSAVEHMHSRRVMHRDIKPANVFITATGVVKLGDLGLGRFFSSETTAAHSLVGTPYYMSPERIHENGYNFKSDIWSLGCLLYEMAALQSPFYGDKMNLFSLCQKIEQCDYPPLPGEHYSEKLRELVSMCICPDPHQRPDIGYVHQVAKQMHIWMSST
Mitogen-activated protein kinase kinase kinase 20 (Homo sapiens), sequence (Q9NYL2 2-800 limits assumed): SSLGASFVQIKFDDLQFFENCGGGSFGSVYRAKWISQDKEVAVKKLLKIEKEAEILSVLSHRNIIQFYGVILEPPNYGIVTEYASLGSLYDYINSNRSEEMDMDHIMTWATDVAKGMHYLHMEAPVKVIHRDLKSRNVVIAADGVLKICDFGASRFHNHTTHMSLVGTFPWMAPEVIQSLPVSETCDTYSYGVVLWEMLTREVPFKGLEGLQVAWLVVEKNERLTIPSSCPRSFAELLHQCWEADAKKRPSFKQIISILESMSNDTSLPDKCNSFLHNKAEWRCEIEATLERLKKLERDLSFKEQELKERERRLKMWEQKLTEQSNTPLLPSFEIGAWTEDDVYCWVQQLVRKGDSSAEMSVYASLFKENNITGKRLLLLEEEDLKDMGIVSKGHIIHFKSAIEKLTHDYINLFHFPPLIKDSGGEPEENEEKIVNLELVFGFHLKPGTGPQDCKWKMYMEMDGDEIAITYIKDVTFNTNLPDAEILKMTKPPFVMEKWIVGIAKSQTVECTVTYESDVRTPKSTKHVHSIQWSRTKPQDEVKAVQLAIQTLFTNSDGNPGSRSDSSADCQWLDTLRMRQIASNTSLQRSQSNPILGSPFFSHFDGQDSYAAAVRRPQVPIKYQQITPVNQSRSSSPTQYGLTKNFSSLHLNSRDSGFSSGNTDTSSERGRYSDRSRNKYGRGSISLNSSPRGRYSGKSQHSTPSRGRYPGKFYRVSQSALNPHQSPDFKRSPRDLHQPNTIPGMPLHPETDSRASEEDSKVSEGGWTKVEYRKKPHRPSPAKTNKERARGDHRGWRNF
Serine/threonine-protein kinase 38 (Homo sapiens), sequence (Q15208 2-465 limits assumed): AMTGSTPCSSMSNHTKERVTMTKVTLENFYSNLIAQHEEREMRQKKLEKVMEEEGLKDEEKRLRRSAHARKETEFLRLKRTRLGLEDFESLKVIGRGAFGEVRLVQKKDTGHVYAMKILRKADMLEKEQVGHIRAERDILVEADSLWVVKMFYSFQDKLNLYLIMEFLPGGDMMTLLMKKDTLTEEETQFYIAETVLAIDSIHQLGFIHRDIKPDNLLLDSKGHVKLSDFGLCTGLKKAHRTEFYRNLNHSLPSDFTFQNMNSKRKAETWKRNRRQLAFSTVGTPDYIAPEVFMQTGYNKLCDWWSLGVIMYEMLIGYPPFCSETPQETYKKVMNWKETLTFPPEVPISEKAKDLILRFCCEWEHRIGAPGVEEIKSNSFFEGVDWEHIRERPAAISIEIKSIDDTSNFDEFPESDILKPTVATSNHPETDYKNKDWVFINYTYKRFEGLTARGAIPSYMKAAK
Serine/threonine-protein kinase WNK1 (Homo sapiens), sequence (Q9H4A3 whole entry, looked up): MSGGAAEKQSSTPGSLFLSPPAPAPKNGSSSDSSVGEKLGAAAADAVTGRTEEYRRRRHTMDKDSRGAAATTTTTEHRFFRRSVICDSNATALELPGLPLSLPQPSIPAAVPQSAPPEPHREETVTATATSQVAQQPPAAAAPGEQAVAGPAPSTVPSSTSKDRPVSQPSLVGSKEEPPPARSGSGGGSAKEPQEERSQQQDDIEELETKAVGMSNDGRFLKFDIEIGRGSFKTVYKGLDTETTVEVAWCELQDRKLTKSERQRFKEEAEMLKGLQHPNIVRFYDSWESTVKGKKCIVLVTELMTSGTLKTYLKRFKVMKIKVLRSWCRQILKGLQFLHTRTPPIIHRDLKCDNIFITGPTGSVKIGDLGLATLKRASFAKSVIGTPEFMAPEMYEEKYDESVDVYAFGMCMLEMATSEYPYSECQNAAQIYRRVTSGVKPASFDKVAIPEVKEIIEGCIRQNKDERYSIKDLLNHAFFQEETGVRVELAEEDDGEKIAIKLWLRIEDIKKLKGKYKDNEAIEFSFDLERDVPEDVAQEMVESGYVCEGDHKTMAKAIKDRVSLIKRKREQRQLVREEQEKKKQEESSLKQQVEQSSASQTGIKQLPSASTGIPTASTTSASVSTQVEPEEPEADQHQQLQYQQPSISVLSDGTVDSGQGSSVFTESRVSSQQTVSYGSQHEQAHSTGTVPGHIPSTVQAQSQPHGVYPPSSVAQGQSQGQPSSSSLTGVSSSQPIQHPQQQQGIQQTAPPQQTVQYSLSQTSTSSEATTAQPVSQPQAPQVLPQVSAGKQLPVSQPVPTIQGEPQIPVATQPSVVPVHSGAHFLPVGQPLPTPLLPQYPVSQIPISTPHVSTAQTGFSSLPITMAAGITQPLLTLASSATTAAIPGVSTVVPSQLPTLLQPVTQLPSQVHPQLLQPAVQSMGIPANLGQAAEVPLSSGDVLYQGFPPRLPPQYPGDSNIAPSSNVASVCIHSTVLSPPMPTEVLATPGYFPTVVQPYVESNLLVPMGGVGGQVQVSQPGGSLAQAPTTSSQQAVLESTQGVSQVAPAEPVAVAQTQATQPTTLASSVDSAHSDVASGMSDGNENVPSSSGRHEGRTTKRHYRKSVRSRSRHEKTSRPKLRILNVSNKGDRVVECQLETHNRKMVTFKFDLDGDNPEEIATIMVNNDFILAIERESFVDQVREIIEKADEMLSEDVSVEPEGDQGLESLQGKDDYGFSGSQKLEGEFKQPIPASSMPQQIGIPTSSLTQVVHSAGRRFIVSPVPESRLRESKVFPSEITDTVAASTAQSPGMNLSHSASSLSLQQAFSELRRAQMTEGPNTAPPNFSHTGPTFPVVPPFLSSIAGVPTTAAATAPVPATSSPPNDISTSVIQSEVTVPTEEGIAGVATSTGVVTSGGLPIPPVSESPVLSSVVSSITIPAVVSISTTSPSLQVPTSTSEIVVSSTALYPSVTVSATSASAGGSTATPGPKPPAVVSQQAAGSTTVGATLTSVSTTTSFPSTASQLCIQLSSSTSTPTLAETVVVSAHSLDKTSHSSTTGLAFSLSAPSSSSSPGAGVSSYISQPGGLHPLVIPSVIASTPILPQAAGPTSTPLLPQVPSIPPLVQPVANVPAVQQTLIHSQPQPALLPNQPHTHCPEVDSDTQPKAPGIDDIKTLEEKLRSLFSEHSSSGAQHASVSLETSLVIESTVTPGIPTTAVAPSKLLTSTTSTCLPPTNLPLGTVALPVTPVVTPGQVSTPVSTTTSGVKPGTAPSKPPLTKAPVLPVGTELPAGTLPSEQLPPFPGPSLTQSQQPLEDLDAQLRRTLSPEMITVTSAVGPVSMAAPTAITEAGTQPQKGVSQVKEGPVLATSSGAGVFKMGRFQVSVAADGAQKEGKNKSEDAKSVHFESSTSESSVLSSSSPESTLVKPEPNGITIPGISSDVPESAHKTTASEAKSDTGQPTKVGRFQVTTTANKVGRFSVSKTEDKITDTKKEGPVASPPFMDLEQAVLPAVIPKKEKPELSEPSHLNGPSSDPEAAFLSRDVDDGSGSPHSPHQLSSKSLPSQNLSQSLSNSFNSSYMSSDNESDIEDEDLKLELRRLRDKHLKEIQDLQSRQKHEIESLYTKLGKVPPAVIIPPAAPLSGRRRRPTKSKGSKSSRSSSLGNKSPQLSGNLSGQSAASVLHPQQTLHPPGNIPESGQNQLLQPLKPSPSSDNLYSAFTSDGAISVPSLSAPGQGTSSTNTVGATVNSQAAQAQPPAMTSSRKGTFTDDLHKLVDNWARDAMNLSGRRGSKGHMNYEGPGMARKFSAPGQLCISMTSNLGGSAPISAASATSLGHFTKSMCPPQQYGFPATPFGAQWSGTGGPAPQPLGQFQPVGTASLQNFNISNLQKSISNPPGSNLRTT

With `C=CC(=O)Nc1cccc(C(=O)Nc2ccc(Nc3cc(-c4[nH]c(SC)nc4C)ccn3)cc2)c1`, the results for the % of control in [1] (at 1 µM) and in assay [1] (at 5 µM) were 99% and 86%, respectively.
Regarding `Cc1cc([C@@H](C)Nc2ccccc2C(=O)O)c2nc(N3CCOCC3)cc(=O)n2c1` [AZD-6482], the % of control in assay [2] and in assay [3] was 100% in each case.
With `Nc1cnc(N2CCc3cc(S(=O)(=O)Nc4c(F)cc(Cl)cc4F)cc(N4CCCC4=O)c32)nc1` [TP-020n], the % of control was determined as 100% in assay [4] and 99% in assay [5].
The compound `CN(C)CCOc1ccc(-c2nc(-c3ccncc3)c(-c3ccc4c(c3)CC/C4=N\O)[nH]2)cc1` yielded a % of control in assay [6] of 89%.
For the compound `CNC(=O)Nc1ccc(-c2nc(N3CC4CCC(C3)O4)c3cnn(C4CCC5(CC4)OCCO5)c3n2)cc1`, the % of inhibition in assay [7] was 3%.
Take `CC[C@@H]1[C@H](F)C(=O)N[C@@H]1COc1nccc2cc(C(N)=O)c(OC)cc12` [ZIMLOVISERTIB]: the % of inhibition on SRSF protein kinase 1 is 6%; in [8], -7.4%; in assay [9], 58.6%; in assay [10], -59.8%.
Consider `COc1cc(N(C)c2ccnc3ccc(C(F)(F)F)cc23)cc(OC)c1OC`, for which the % binding turned out to be 85% in assay [11] and 72% in assay [12].
